{"source": "ChEMBL document CHEMBL1150526", "about": "“Isolation and X-ray crystal structure of racemic Xestospongin D from the Singapore marine sponge Niphates sp1” (1996)", "type_in_all_cases": "functional", "key": {"Leukemia cell": {"test_system": "Leukemia cell", "experiment": "Compound was evaluated for its activity to inhibit growth of human leukemia cancer cell line"}, "Micrococcus luteus": {"test_system": "Micrococcus luteus", "experiment": "Compound was evaluated for the inhibition of growth of Micrococcus luteus; (12.5-25 ug/disk)"}, "P388": {"test_system": "P388", "experiment": "Compound was evaluated for its activity to inhibit growth of murine P388 lymphocytic leukemia", "conditions": "Mus musculus, read-out: ED50 (the source's name)"}, "Breast cancer cell line": {"test_system": "Breast cancer cell line", "experiment": "Compound was evaluated for its activity to inhibit growth of human breast cancer cell line"}}, "data": [{"molecule": "O[C@@]12CCCCCC[C@H]3CCN4CCC[C@H](CCCCCC[C@H]5CCN(CCC1)[C@@H]2O5)[C@H]4O3", "note": "[XESTOSPONGIN D]", "values": [{"measurement": "GI50", "setting": "Leukemia cell", "value": 3.62, "unit": "µM"}, {"measurement": "MIC", "setting": "Micrococcus luteus", "value": 25, "unit": "ug disk-1"}, {"measurement": "EC50", "setting": "P388", "value": 1.7, "unit": "µg/mL"}, {"measurement": "GI50", "setting": "Breast cancer cell line", "value": 4.53, "unit": "µM"}]}]}
